Experiments:
[1] = tested on: Myotonic Dystrophy 1 affected patient fibroblasts (Coriel GM04602; 1600 CTG repeats); assay: DM1 foci reduction assay (EC50 assay; CAG10-Cy3 FISH, foci per nucleus); type: cell-based; conditions: Homo sapiens, Fibroblast; DM1 patient fibroblasts, 48 h treatment, foci per nucleus; read-out: DM1 EC50, 48 h
Method in brief: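 Foci per nucleus counted by 20× imaging of 4 areas per well, after overnight FISH with 5 nM CAG10-Cy3 and DAPI staining of fixed, permeabilized cells. DM1 fibroblasts (GM04602, 1600 CTG) were dosed 48 h at 37 °C, 8 points, 3-fold dilutions, 3 μM top concentration.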

F35T cells = assay: Foci reduction in FECD (CAG10-Cy3 FISH, foci per nucleus); type: cell-based; conditions: F35T cells, 48 h treatment, foci per nucleus; read-out: FECD EC50, 48 h
Description: F35T cells were cultured in media containing Opti-MEM (ThermoFisher) supplemented with 8% FBS, 20 μg/mL ascorbic acid, […] CaCl2, 0.08% chondroitin sulfate, 1×Pen/Strep, 100 μg/mL bovine pituitary extract, 5 ng/mL epidermal growth factor, and 20 ng/mL nerve growth factor. Throughout the culture, cells were maintained in an incubator at 37° C. and 5% CO2. Media was refreshed every 48 hours. Once cells reached adequate confluency, they were harvested and seeded in 96 well plates with a density of 5000 cells per well in 200 μL of the supplemented Opti-MEM media. Cells were returned to the incubator and left to settle for 24 hours at 37° C. and 5% CO2. Cells were then treated in 8-point dose response with compounds or negative controls and incubated for 48 hours at 37° C. and 5% CO2. After treatment, cells were fixed with 4% PFA for 20 minutes at room temperature, followed by permeabilization with 70% ethanol. Cells were incubated at −20° C. for a minimum of 1 hour and maximum of 72 hours, after which the ethanol was removed, and cells were washed with PBS. Cells were rehydrated with 30% formamide and 2×SSC buffer for 10 minutes at room temperature. Cells were then incubated overnight at 37° C. in the hybridization solution containing 30% formamide, 2×SSC, 55 mg/mL dextran sulfate, 2.75 mg/mL bovine serum albumin, 0.2 μg/mL Herring sperm DNA, 1% vanadyl-ribonucleoside complex, and 0.05% 10 μM CAG10-Cy3 probe. Cells were washed twice with 30% formamide in 2×SSC, incubating the cells while shaking with the second wash at 37° C. and 200 rpm for 60 minutes. Cells were stained with 5 mg/mL DAPI 1:1000 in PBS, incubating at room temperature for 5 minutes. Cells were then washed with PBS and sealed with adhesive foil, with each well containing a final volume of 150 μL PBS. Cells were imaged on a Cytation 5 and analyzed on a foci per nucleus basis.

SMILES | EC50 [1] | EC50 (F35T cells)
Cn1cc(NC(=O)c2nc(NC(=O)CCNC(=O)c3cc(NC(=O)c4nccn4C)cn3C)cn2C)cc1C(=O)NCCCC(=O)Nc1cn(C)c(C(=O)NCCC(=O)Nc2cc(C(=O)Nc3cn(C)c(C(=O)NCCC(=O)NCCOCCOCCOCCOCCOc4ccc(N)cc4)n3)n(C)c2)n1 [Compound B-12] | 100 to 500 nM | 100 to 500 nM
Cn1cc(NC(=O)c2nc(NC(=O)CCNC(=O)c3cc(NC(=O)c4nccn4C)cn3C)cn2C)cc1C(=O)NCCCC(=O)Nc1cn(C)c(C(=O)NCCC(=O)Nc2cc(C(=O)Nc3cn(C)c(C(=O)NCCC(=O)NCCOCCOCCOc4ccc(N)cc4)n3)n(C)c2)n1 [Compound B-14] | 100 to 500 nM | 100 to 500 nM
Cn1cc(NC(=O)c2nc(NC(=O)CCNC(=O)c3cc(NC(=O)c4nccn4C)cn3C)cn2C)cc1C(=O)NCCCC(=O)Nc1cn(C)c(C(=O)NCCC(=O)Nc2cc(C(=O)Nc3cn(C)c(C(=O)NCCC(=O)NCCOCCOc4ccc(NC(=O)OCc5ccccc5)cc4)n3)n(C)c2)n1 [Compound B-15] | < 100 nM | < 100 nM
Cn1cc(NC(=O)c2nc(NC(=O)CCNC(=O)c3cc(NC(=O)c4nccn4C)cn3C)cn2C)cc1C(=O)NCCCC(=O)Nc1cn(C)c(C(=O)NCCC(=O)Nc2cc(C(=O)Nc3cn(C)c(C(=O)NCCC(=O)NCCOCCOc4ccc(N)cc4)n3)n(C)c2)n1 [Compound B-16] | 100 to 500 nM | 100 to 500 nM
Cn1cc(NC(=O)c2nc(NC(=O)CCNC(=O)c3cc(NC(=O)c4nccn4C)cn3C)cn2C)cc1C(=O)NCCCC(=O)Nc1cn(C)c(C(=O)NCCC(=O)Nc2cc(C(=O)Nc3cn(C)c(C(=O)NCCC(=O)NCCOCCOCCOCCN4CCC(C#CC#CC5CCN(C(=O)OC(C)(C)C)CC5)CC4)n3)n(C)c2)n1 [Compound B-17] | < 100 nM | < 100 nM
Cn1cc(NC(=O)c2nc(NC(=O)CCNC(=O)c3cc(NC(=O)c4nccn4C)cn3C)cn2C)cc1C(=O)NCCCC(=O)Nc1cn(C)c(C(=O)NCCC(=O)Nc2cc(C(=O)Nc3cn(C)c(C(=O)NCCC(=O)NCCOCCOCCOCCN4CCC(C#CC#CC5CCNCC5)CC4)n3)n(C)c2)n1 [Compound B-18] | 100 to 500 nM | 100 to 500 nM
Cn1cc(NC(=O)c2nc(NC(=O)CCNC(=O)c3cc(NC(=O)c4nccn4C)cn3C)cn2C)cc1C(=O)NCCCC(=O)Nc1cn(C)c(C(=O)NCCC(=O)Nc2cc(C(=O)Nc3cn(C)c(C(=O)NCCC(=O)NCCOCCN4CCC(C#CC#CC5CCN(C(=O)OC(C)(C)C)CC5)CC4)n3)n(C)c2)n1 [Compound B-19] | < 100 nM | 100 to 500 nM
Cn1cc(NC(=O)c2nc(NC(=O)CCNC(=O)c3cc(NC(=O)c4nccn4C)cn3C)cn2C)cc1C(=O)NCCCC(=O)Nc1cn(C)c(C(=O)NCCC(=O)Nc2cc(C(=O)Nc3cn(C)c(C(=O)NCCC(=O)NCCOCCN4CCC(C#CC#CC5CCNCC5)CC4)n3)n(C)c2)n1 [Compound B-20] | 500 to 1000 nM | 500 to 1000 nM
Cn1cc(NC(=O)c2nc(NC(=O)CCNC(=O)c3cc(NC(=O)c4nccn4C)cn3C)cn2C)cc1C(=O)NCCCC(=O)Nc1cn(C)c(C(=O)NCCC(=O)Nc2cc(C(=O)Nc3cn(C)c(C(=O)NCCC(=O)NCCOCCOCCOCCOCCN4CCN(C5CCN(C(=O)OCc6ccccc6)CC5)CC4)n3)n(C)c2)n1 [Compound B-21] | 100 to 500 nM | 100 to 500 nM
Cn1cc(NC(=O)c2nc(NC(=O)CCNC(=O)c3cc(NC(=O)c4nccn4C)cn3C)cn2C)cc1C(=O)NCCCC(=O)Nc1cn(C)c(C(=O)NCCC(=O)Nc2cc(C(=O)Nc3cn(C)c(C(=O)NCCC(=O)NCCOCCOCCOCCOCCN4CCN(C5CCNCC5)CC4)n3)n(C)c2)n1 [Compound B-22] | 100 to 500 nM | 100 to 500 nM
Cn1cc(NC(=O)c2nc(NC(=O)CCNC(=O)c3cc(NC(=O)c4nccn4C)cn3C)cn2C)cc1C(=O)NCCCC(=O)Nc1cn(C)c(C(=O)NCCC(=O)Nc2cc(C(=O)Nc3cn(C)c(C(=O)NCCC(=O)N4CCC(N5CCN(CCOCCOCCOCCOCCNC(=O)OC(C)(C)C)CC5)CC4)n3)n(C)c2)n1 [Compound B-23] | 100 to 500 nM | > 1000 nM
Cn1cc(NC(=O)c2nc(NC(=O)CCNC(=O)c3cc(NC(=O)c4nccn4C)cn3C)cn2C)cc1C(=O)NCCCC(=O)Nc1cn(C)c(C(=O)NCCC(=O)Nc2cc(C(=O)Nc3cn(C)c(C(=O)NCCC(=O)NCCOCCOCCOCCN4CCN(C5CCN(c6ccc([N+](=O)[O-])cc6)CC5)CC4)n3)n(C)c2)n1 [Compound B-25] | 500 to 1000 nM | > 1000 nM
Cn1cc(NC(=O)c2nc(NC(=O)CCNC(=O)c3cc(NC(=O)c4nccn4C)cn3C)cn2C)cc1C(=O)NCCCC(=O)Nc1cn(C)c(C(=O)NCCC(=O)Nc2cc(C(=O)Nc3cn(C)c(C(=O)NCCC(=O)N4CCN(CCOCCOCCOCCOCCNC(=O)OC(C)(C)C)CC4)n3)n(C)c2)n1 [Compound B-27] | 100 to 500 nM | 100 to 500 nM
Cn1cc(NC(=O)c2nc(NC(=O)CCNC(=O)c3cc(NC(=O)c4nccn4C)cn3C)cn2C)cc1C(=O)NCCCC(=O)Nc1cn(C)c(C(=O)NCCC(=O)Nc2cc(C(=O)Nc3cn(C)c(C(=O)NCCC(=O)N4CCN(CCOCCOCCOCCOCCN)CC4)n3)n(C)c2)n1 [Compound B-28] | 500 to 1000 nM | 500 to 1000 nM
Cn1cc(NC(=O)c2nc(NC(=O)CCNC(=O)c3cc(NC(=O)c4nccn4C)cn3C)cn2C)cc1C(=O)NCCCC(=O)Nc1cn(C)c(C(=O)NCCC(=O)Nc2cc(C(=O)Nc3cn(C)c(C(=O)NCCC(=O)N4CCC(N5CCN(C(=O)OC(C)(C)C)CC5)CC4)n3)n(C)c2)n1 [Compound B-30] | 100 to 500 nM | < 100 nM
Cn1cc(NC(=O)c2nc(NC(=O)CCNC(=O)c3cc(NC(=O)c4nccn4C)cn3C)cn2C)cc1C(=O)NCCCC(=O)Nc1cn(C)c(C(=O)NCCC(=O)Nc2cc(C(=O)Nc3cn(C)c(C(=O)NCCC(=O)N4CCC(N5CCNCC5)CC4)n3)n(C)c2)n1 [Compound B-31] | < 100 nM | 100 to 500 nM
Cn1cc(NC(=O)c2nc(NC(=O)CCNC(=O)c3cc(NC(=O)c4nccn4C)cn3C)cn2C)cc1C(=O)NCCCC(=O)Nc1cn(C)c(C(=O)NCCC(=O)Nc2cc(C(=O)Nc3cn(C)c(C(=O)NCCC(=O)N4CCN(C5CCN(C(=O)OCc6ccccc6)CC5)CC4)n3)n(C)c2)n1 [Compound B-32] | < 100 nM | < 100 nM
CN(C)CCCNC(=O)CCNC(=O)c1nc(NC(=O)c2cc(NC(=O)CCNC(=O)c3nc(NC(=O)CCCNC(=O)c4cc(NC(=O)c5nc(NC(=O)CCNC(=O)c6cc(NC(=O)c7nccn7C)cn6C)cn5C)cn4C)cn3C)cn2C)cn1C [Compound B-33] | 100 to 500 nM | 100 to 500 nM
CN(CCCNC(=O)CCNC(=O)c1nc(NC(=O)c2cc(NC(=O)CCNC(=O)c3nc(NC(=O)CCCNC(=O)c4cc(NC(=O)c5nc(NC(=O)CCNC(=O)c6cc(NC(=O)c7nccn7C)cn6C)cn5C)cn4C)cn3C)cn2C)cn1C)CCCNC(=O)c1cccc(C(=O)O)c1 [Compound B-35] | 500 to 1000 nM | 100 to 500 nM
CN1CCN(CCCNC(=O)CCNC(=O)c2nc(NC(=O)c3cc(NC(=O)CCNC(=O)c4nc(NC(=O)CCCNC(=O)c5cc(NC(=O)c6nc(NC(=O)CCNC(=O)c7cc(NC(=O)c8nccn8C)cn7C)cn6C)cn5C)cn4C)cn3C)cn2C)CC1 [Compound B-36] | 100 to 500 nM | 100 to 500 nM
Cn1cc(NC(=O)c2nc(NC(=O)CCNC(=O)c3cc(NC(=O)c4nccn4C)cn3C)cn2C)cc1C(=O)NCCCC(=O)Nc1cn(C)c(C(=O)NCCC(=O)Nc2cc(C(=O)Nc3cn(C)c(C(=O)NCCC(=O)NCCCN4CCOCC4)n3)n(C)c2)n1 [Compound B-37] | 100 to 500 nM | 100 to 500 nM
Cn1cc(NC(=O)c2nc(NC(=O)CCNC(=O)c3cc(NC(=O)c4nccn4C)cn3C)cn2C)cc1C(=O)NCCCC(=O)Nc1cn(C)c(C(=O)NCCC(=O)Nc2cc(C(=O)Nc3cn(C)c(C(=O)NCCC(=O)NCCCN4CCCCC4)n3)n(C)c2)n1 [Compound B-38] | 100 to 500 nM | > 1000 nM
CCCCCNC(=O)CCNC(=O)c1nc(NC(=O)c2cc(NC(=O)CCNC(=O)c3nc(NC(=O)CCCNC(=O)c4cc(NC(=O)c5nc(NC(=O)CCNC(=O)c6cc(NC(=O)c7nccn7C)cn6C)cn5C)cn4C)cn3C)cn2C)cn1C [Compound B-39] | < 100 nM | < 100 nM
CN(C)CCOCCNC(=O)CCNC(=O)c1nc(NC(=O)c2cc(NC(=O)CCNC(=O)c3nc(NC(=O)CCCNC(=O)c4cc(NC(=O)c5nc(NC(=O)CCNC(=O)c6cc(NC(=O)c7nccn7C)cn6C)cn5C)cn4C)cn3C)cn2C)cn1C [Compound B-42] | 100 to 500 nM | 100 to 500 nM
CCCNC(=O)c1nc(NC(=O)c2cc(NC(=O)CCNC(=O)c3nc(NC(=O)CCCNC(=O)c4cc(NC(=O)c5nc(NC(=O)CCNC(=O)c6cc(NC(=O)c7nccn7C)cn6C)cn5C)cn4C)cn3C)cn2C)cn1C [Compound B-43] | < 100 nM | < 100 nM

Reference: patent US20250368628A1, “METHODS AND COMPOUNDS FOR MODULATING INHERITED GENETIC DISEASES” (Design Therapeutics, Inc., priority 2022, published 2025)
